Experimental data from US5574026A, “Methods for inhibiting angiogenesis proliferation of endothelial or tumor cells and tumor growth” (American Cyanamid Company, priority 1994, dated 1996).
Converted amounts (≈) assume the structure as drawn. Structures can show the parent of a compound that is named as a salt.

Columns and labels:
Assay type in all cases: cell-based
Human Tumor cell lines = experiment: Antiproliferative activity in panel of human tumor cell lines (average / panel as a whole), PROTOCOL 1 and PROTOCOL 2; settings: for IC50: Homo sapiens, average over the tumor cell lines tested
Description: (§1) The antiproliferative activity of the compounds of Formula I in an Adult Bovine Aortic Endothelial (ABAE) cell line and in Human Tumor cells lines is evaluated in three similar assays that measure growth inhibition. The assays are identified as follows:
(§2) PROTOCOLS 1, 2, and 3 are described in greater detail hereinbelow. In general, according to PROTOCOLS 1 and 2, the target ABAE and/or Human Tumor cells are exposed to the compounds of Formula I for 48 hours. PROTOCOL 3 exposes ABAE cells to the compounds for 4 days. A detailed description of the Protocols is as follows:
(§3) Antiproliferative Activity in Human Tumor Cell Lines
(§4) The antiproliferative activity of the compounds of Formula I of the present invention is evaluated in a panel comprised of human tumor cell lines. The human tumor cell lines are from
(§5) 2) Colon tumors: MIP, CACO2, and SW620.
(§6) All cell lines are maintained in log phase in RPMI 1640 media, supplemented with 5% fetal calf serum, penicillin/streptomycin and 2 mM L-glutamine. Cultures are renewed after 20 passages with cells from a fresh stock of batch-frozen early passage cells. Cell lines are routinely checked for mycoplasma contamination (Genprobe). In a laminar flow hood, cells (1-5×10^4) are plated into 96-well microtiter plates in a volume of 0.1 ml/well with a bulk microtiter dispenser (Denley). […] At this concentration, dimethylsulfoxide has no effect on cell growth. Compounds are added using a Tomtec dispenser which simultaneously dispenses from one 96-well plate, containing the drug dilutions, to the plates containing the cells. After two days of continuous drug exposure, 50% cold trichloroacetic acid (TCA) is added to 10% final concentration to fix the cells, and after 60 minutes at 4° C., the TCA is aspirated and the plates are washed 5 times with deionized water using a microtiter plate washer. The number of cells on the plate are quantitated using a protein dye-binding assay (Monks et al., 1991). A 0.4% solution of the dye, sulforhodamine B, in […] is added to the plates, and the plates are washed 5 times with 1% glacial acetic acid using the automatic plate washed. The bound stain is solubilized with 0.1 ml of 10 mMTris base. The optical densities are read from an automatic spectrophotometric plate reader (Dynatech) directly to a main frame computer (VAX 8600).
(§7) Positive controls, that include standard chemotherapeutic drugs (i.e., adriamycin, cisplatin, etc.), are included in every experiment.
(§8) Background optical density measurements (complete media--cells, and complete media+drug-cells) are automatically subtracted from the appropriate control and test wells. Mean values and standard errors are determined from duplicate wells. A measure is also made of the optical density at time when the drugs are added. The number of cells after treatment (P), as % of control, is calculated for every concentration of drug, as follows: [formula] wherein: T is optical density measurement for treated cells after 48 hours;
(§9) C is optical density measurement for untreated cells after 48 hours;
(§10) Co is optical density measurement for cells at the time of drug addition.
(§11) IC50 of Growth inhibition is calculated from the sets of P values using the RS-1 data package (BBN Software).
(§12) Antiproliferative Activity in Human Tumor and Adult Bovine Aortic Endothelial Cell Lines (ABAE)
(§13) The antiproliferative activity of the compounds of Formula I is evaluated in a panel comprised of human tumor cell lines as listed in Protocol 1 as well as an adult bovine aortic endothelial cell line (ABAE). This assay is a modification of PROTOCOL 1. The modifications include:
(§14) 1) each concentration for each compound is tested in a single well;
(§15) 2) compounds are tested at 20, 4, 0.8, 0.16 microgram/ml and additionally in some experiments at 100 and 0.32 microgram/ml;
(§16) 3) samples are pipetted into a 96-well plate for each of the cell lines by a Beckman Biomek 1000 SL robot; […]

[1] = test system: Adult Bovine Aortic Endothelial (ABAE) cell line; experiment: Antiproliferative activity in Adult Bovine Aortic Endothelial (ABAE) cell line, PROTOCOL 2 (48 h, sulforhodamine B); settings: Bos taurus, ABAE cells
Description: The antiproliferative activity of the compounds of Formula I in an Adult Bovine Aortic Endothelial (ABAE) cell line and in Human Tumor cells lines is evaluated in three similar assays that measure growth inhibition. The assays are identified as follows: PROTOCOLS 1, 2, and 3 are described in greater detail hereinbelow. In general, according to PROTOCOLS 1 and 2, the target ABAE and/or Human Tumor cells are exposed to the compounds of Formula I for 48 hours. PROTOCOL 3 exposes ABAE cells to the compounds for 4 days. A detailed description of the Protocols is as follows: All cell lines are maintained in log phase in RPMI 1640 media, supplemented with 5% fetal calf serum, penicillin/streptomycin and 2 mM L-glutamine. Cultures are renewed after 20 passages with cells from a fresh stock of batch-frozen early passage cells. Cell lines are routinely checked for mycoplasma contamination (Genprobe). In a laminar flow hood, cells (1-5×10^4) are plated into 96-well microtiter plates in a volume of 0.1 ml/well with a bulk microtiter dispenser (Denley). […] At this concentration, dimethylsulfoxide has no effect on cell growth. Compounds are added using a Tomtec dispenser which simultaneously dispenses from one 96-well plate, containing the drug dilutions, to the plates containing the cells. […] The number of cells on the plate are quantitated using a protein dye-binding assay (Monks et al., 1991). […] The optical densities are read from an automatic spectrophotometric plate reader (Dynatech) directly to a main frame computer (VAX 8600). PROTOCOL 2 Antiproliferative Activity in Human Tumor and Adult Bovine Aortic Endothelial Cell Lines (ABAE) The antiproliferative activity of the compounds of Formula I is evaluated in a panel comprised of human tumor cell lines as listed in Protocol 1 as well as an adult bovine aortic endothelial cell line (ABAE). […] Table 1 presents the results depicting the antiproliferative activity of the compounds of Formula I against an ABAE cell line, as evaluated by PROTOCOL 2 and PROTOCOL 3. […]

SW620 = experiment: Antiproliferative activity in human tumor cell lines, PROTOCOL 1 and PROTOCOL 2; settings: SW-620, colon tumor cell line SW620, 48 hours, read-out: IC50
Description: as §1, §2, §3, §4, §5, §6, §7, §8, §9, §10, §11, §12, §13, §14, §15, §16

Compound	inhibition of cell growth at the highest concentrations (Human Tumor cell lines; FIG. 2, 6 human tumor cell lines, in words)	IC50 (Human Tumor cell lines) [µg/mL]	dead floating cells (Human Tumor cell lines; even at the highest concentration)	IC50 [1] [µg/mL]	IC50 (SW620) [µg/mL]
CN(C)[C@@H]1C(O)=C(C(N)=O)C(=O)[C@@]2(O)C(O)=C3C(=O)c4c(O)ccc(Br)c4CC3CC12 (stereo partly drawn) [Example 8, [4S-(4α,12aα)]-7-Bromo-4-(dimethylamino)-1,4,4a,5,5a,-6,11,12a-octahydro-3,10,12,12a-tetrahydroxy-1,11-dioxo-2-naphthacenecarboxamide sulfate]	no 100% inhibition of cell growth	1.3	not observed	2.4	1.4
CN(C)[C@@H]1C(O)=C(C(N)=O)C(=O)[C@@]2(O)C(O)=C3C(=O)c4c(O)ccc(I)c4CC3CC12 (stereo partly drawn) [Example 10, [4S-(4α,12aα)]-4-(Dimethylamino)-4,4,4a,5,5a,6,11,12a-octahydro-3,10,12,12a-tetrahydroxy-7-iodo-1,11-dioxo-2-naphthacenecarboxamide]	–	1.7 (≈ 3.15 µM)	–	5 (≈ 9.25 µM)	1.2 (≈ 2.22 µM)
CN(C)c1ccc(O)c2c1C[C@H]1C[C@H]3[C@H](N(C)C)C(O)=C(C(N)=O)C(=O)[C@@]3(O)C(O)=C1C2=O [Minocycline, reference compound]	–	–	–	> 20	–
